Reference: US20160303095A1, “METHODS OF TREATING HEPATITIS B VIRUS” (Gilead Sciences, Inc., priority 2015, published 2016)
Where two headings read alike, the source gives them in different places.

Legend:
HBV = assay: Effect of the withdrawal of KDM inhibitors on HBV rebound (HBsAg, HBeAg) in PHH; assay type: cell-based, Hepatitis B Virus; details: for suppression of viral transcription after withdrawal: up to another 14 days after withdrawal; for HBeAg / HBsAg: PHH donor 8181, virus P21, compound removed after two weeks; for rebound of HBsAg or HBeAg secretion into media after compound withdrawal: PHH donor 8181, 21p virus, 14 days treatment, then 14 days without compound
Protocol: PHH from donor 8181 infected with 21p virus was treated with serially diluted Examples 8 or 7 for 14 days. Afterwards the compound was removed and cell cultures were replenished regularly with fresh medium but without compound for another 14 days. The levels of HBsAg and HBeAg secretion were measured during the course of the experiment to monitor the effects of compound on virus replication. No rebound of HBsAg or HBeAg secretion into media was observed after the compound withdrawal.
(§1) PHH from donor 8181 were infected with patient viruses P21 for three days before serially diluted Example 8 was added to the cells. After two weeks of the treatment the compound was removed and cells were followed for another 14 days. Activity of the compound was monitored during the course of the experiment using HBsAg and HBeAg readout. The medium with/without compound was replenished every 3-4 days. Day 0—compound was added to the infected cells.
as §1, with “PHH” for “PHH from”, “8181 was” for “8181 were”, “Example 7” for “Example 8”

H3K4me3 mark = assay: Western blot detection of H3K4me3 in HBV-infected PHHs; assay type: cell-based, human; details: for IC50: Homo sapiens; for chromatin H3K4Me3 mark: PHH from three different donors
Protocol: One million primary human hepatocytes (PHH) cells from three different donors were plated in 6 well collagen coated tissue culture plates in 2.5 ml Plating Media containing William's Medium E supplemented with 1% Penicillin/Streptomycin, 4 μg/mL human recombinant insulin, 2 mM glutamax, 15 mM Hepes, 1 μM dexamethasone and 5% fetal bovine serum (Life Technologies, Cat#A12176-01 Life Technologies, Chicago, Ill.) and incubated for 4-hours at 37° C. Following this incubation the media was changed to Maintenance Media (Cat#CM4000-A15564 Life Technologies, Chicago, Ill.) containing William's Medium E supplemented with 0.5% Penicillin/Streptomycin, 6.25 μg/mL human recombinant insulin, 6.25 μg/mL human transferrin, 6.25 ng/mL selenous acid, 1.25 mg/mL bovine serum albumin, 5.35 μg/mL linoleic acid, 2 mM glutamax, 15 mM Hepes, 0.1 μM dexamethasone, 2% fetal bovine serum, and 2% DMSO (Cat#D2650 Sigma, St. Louis, Mo.). The next day, cells were infected with approximately 500 genome equivalents of HBV clinical isolates 21P (GTA) or AD38 (GTD) per cell in Maintenance Media supplemented with 4% PEG 8000. Small molecule inhibitors targeting KDMs were serially diluted in Maintenance Media and added to cells at 3 days post infection (p.i.). Media with compounds was replenished every 2-3 days. Cells were harvested on day 14 p.i. by scraping the monolayer into ice-cold PBS supplemented with 5 mM Sodium Butyrate and concentrated by centrifugation at 1000×g for 5 minutes at 4° C. The cell pellets were washed twice by re-suspension in PBS and concentrated by centrifugation. The cells were lysed by suspension in Triton Extraction Buffer (TEB: PBS containing 0.5% Triton X 100 (v/v), 2 mM phenylmethylsulfonyl fluoride (PMSF), 0.02% (w/v) NaN3) at a cell density of 10^7 cells per ml and incubated on ice for 10 minutes with gentle stirring. Following centrifugation at 500 g for 10 minutes at 4° C., the supernatants were removed and the pellets were washed in 5×10^7 cells per ml TEB buffer and centrifuged as before. The pellets were re-suspended in 0.2N HCl at a cell density of 4×10^7 cells per ml and the histones were acid extracted overnight at 4° C. Samples were centrifuged at 500 g for 10 minutes at 4° C., the supematants were removed and protein content was determined using the Bradford assay. Histones were separated on a 4-20% gradient SDS gel (Mini protean TGX precast gels from BioRad), and blotted to a Hybond C-extra nitrocellulose membrane (Amersham Biosciences, RPN303E). H3K4me3 and total H3 were detected with a mixture of 1° antibodies (Cat#05-745R Millipore and Cat#14269S Cell Signaling) diluted 1:1000 in 5% skimmed milk powder in PBS containing 0.1% Tween. The western blot was washed 3 times in PBS containing 0.1% tween and incubated with 2° antibodies (Donkey anti-Mouse IRDye at 680LT Cat#926-68022 Licor Odyssey; Donkey anti-Rabbit IRDye at 800CW Cat#96-32213; Licor Odyssey) diluted 1:10000 in 5% skimmed milk powder in PBS containing 0.1% tween 20 for 1 h. Detection of infrared fluorescence was performed on Infrared Fluorescence Imaging System LI-COR. Concentration dependence of H3K4me3/H3 signal was used to calculate IC50 value for induction of H3K4 trimethylation.

[1] = read-out: IC50 (concentration causing a 50% increase in the H3K4me3 mark), Virus 21P (GTA), PHH 4239
[2] = read-out: IC50 (concentration causing a 50% increase in the H3K4me3 mark), Virus 21P (GTA), PHH 8130
[3] = read-out: IC50 (concentration causing a 50% increase in the H3K4me3 mark), Virus 21P (GTA), PHH 8181
[4] = read-out: IC50 (concentration causing a 50% increase in the H3K4me3 mark), Virus AD38 (GTD), PHH 4239
[5] = read-out: IC50 (concentration causing a 50% increase in the H3K4me3 mark), Virus AD38 (GTD), PHH 8130
[6] = read-out: IC50 (concentration causing a 50% increase in the H3K4me3 mark), Virus AD38 (GTD), PHH 8181

`Nc1c(C(=O)O)ccnc1C(=O)O` [Example 7, reference compound] was tested, and the “suppression of viral transcription after withdrawal” value (HBV; 2 μM) was “prolonged suppression of viral transcription”, the HBeAg (HBV; 2000 nM, Day 0) was 0 ng/mL and the HBsAg (HBV; 2000 nM, Day 0) was 0 ng/mL. For the same compound, the HBeAg (HBV; 2000 nM, Day 5) was 9.2 ng/mL, the HBsAg (HBV; 2000 nM, Day 5) was 20.6 ng/mL and the HBeAg (HBV; 2000 nM, Day 10) was 25.1 ng/mL. It also gave an HBsAg (HBV; 2000 nM, Day 10) of 149.2 ng/mL, an HBeAg (HBV; 2000 nM, Day 14) of 13.7 ng/mL and an HBsAg (HBV; 2000 nM, Day 14) of 68.6 ng/mL. For the same compound, the HBeAg (HBV; 2000 nM, Day 19) was 7.0 ng/mL, the HBsAg (HBV; 2000 nM, Day 19) was 26.8 ng/mL and the HBeAg (HBV; 2000 nM, Day 24) was 5.3 ng/mL. The HBsAg (HBV; 2000 nM, Day 24) was 11.7 ng/mL, the HBeAg (HBV; 2000 nM, Day 28) was 5.4 ng/mL and the HBsAg (HBV; 2000 nM, Day 28) was 19.1 ng/mL. The “rebound of HBsAg or HBeAg secretion into media after compound withdrawal” value (HBV) was “No rebound”.

Compound `CCN(CCN(C)C)C(=O)CNCc1cc(C(=O)O)ccn1` [Example 9] has an IC50 (H3K4me3 mark; [1]) of 60 nM, an IC50 (H3K4me3 mark; [2]) of 130 nM and an IC50 (H3K4me3 mark; [3]) of 100 nM. It also gave an IC50 (H3K4me3 mark; [4]) of 10 nM, an IC50 (H3K4me3 mark; [5]) of 130 nM and an IC50 (H3K4me3 mark; [6]) of 130 nM. The “chromatin H3K4Me3 mark” value (H3K4me3 mark) was “increase in the chromatin H3K4Me3 mark in a dose-dependent manner”.

For `CCOC(=O)c1ccnc(CNCC(=O)N(CC)CCN(C)C)c1` [Example 8], the IC50 (H3K4me3 mark; [1]) was 30 nM, the IC50 (H3K4me3 mark; [2]) was 1 nM and the IC50 (H3K4me3 mark; [3]) was 70 nM. It also gave an IC50 (H3K4me3 mark; [4]) of 30 nM, an IC50 (H3K4me3 mark; [5]) of 3 nM and an IC50 (H3K4me3 mark; [6]) of 50 nM. The “chromatin H3K4Me3 mark” value (H3K4me3 mark) was “increase in the chromatin H3K4Me3 mark in a dose-dependent manner”, the HBeAg (HBV; 20 nM, Day 0) was 0 ng/mL and the HBsAg (HBV; 20 nM, Day 0) was 0 ng/mL. The HBeAg (HBV; 20 nM, Day 5) was 5.3 ng/mL, the HBsAg (HBV; 20 nM, Day 5) was 13.8 ng/mL and the HBeAg (HBV; 20 nM, Day 10) was 31 ng/mL. It also gave an HBsAg (HBV; 20 nM, Day 10) of 147 ng/mL, an HBeAg (HBV; 20 nM, Day 14) of 13 ng/mL and an HBsAg (HBV; 20 nM, Day 14) of 30 ng/mL. The HBeAg (HBV; 20 nM, Day 19) was 3 ng/mL, the HBsAg (HBV; 20 nM, Day 19) was 9 ng/mL and the HBeAg (HBV; 20 nM, Day 24) was 2.3 ng/mL. It also gave an HBsAg (HBV; 20 nM, Day 24) of 4.4 ng/mL, an HBeAg (HBV; 20 nM, Day 28) of 1.9 ng/mL and an HBsAg (HBV; 20 nM, Day 28) of 5.26 ng/mL. For the same compound, the “suppression of viral transcription after withdrawal” value (HBV; 0.08 μM) was “prolonged suppression of viral transcription” and the “rebound of HBsAg or HBeAg secretion into media after compound withdrawal” value (HBV) was “No rebound”.
